Measured values reported in paper PMC7466753, “An epoxide hydrolase from endophytic Streptomyces shows unique structural features and wide biocatalytic activity” (Acta Crystallographica. Section D, Structural Biology, 2020).

Key:
B1EPH2 = target: T1, B1EPH2 (Streptomyces sp. CBMAI 2042, UniProt A0ACD6BAW7); test: adrenaline test (periodate back-titration, […] nm); type: biochemical; settings: pH 6.0 sodium phosphate; racemic substrate in DMSO
T1 construct: gene STAN_0072; ORF in pET-29b(+), E. coli BL21(DE3), nickel IMAC and gel filtration; protomer 37 kDa, hexamer (252 kDa by gel filtration)

[1] = target: the molecule itself; test: crystal structure; X-ray, 2.2 Å, space group P4(1)22; hanging drop, 0.1 M sodium cacodylate pH 6.5, 1 M trisodium citrate, protein 12.5 mg/ml in 50 mM HEPES pH 8.0, 300 mM NaCl; three protomers in the asymmetric unit, hexamer by twofold crystallographic symmetry

c1ccc(OCC2CO2)cc1 (racemic) [compound 3, phenyl glycidyl ether]
% conversion relative to 1,2-cyclohexanediol (B1EPH2): 25%

B1: B1EPH2, α/β-epoxide hydrolase from Streptomyces sp. CBMAI 2042 (enzyme)
chain: VPQPPTDDPTTPAEKGAVHRLVDTPGGRIHLVEQGTGPLVLLVHGFPESWYSWRHQLPALAAAGYRAAAIDVRGYGRSAKPAATDAYRMLAHVADNTAVVHALGEETATVVGHDWGSPIAANSALLRPDVFTAVGLLSVPYAPRGEHRPTDGFARIGGDEEFYVSYFQAPGRAEAEIERDVRGWLAGFYTGLTGGALTPEEHGRLFFVPPGAHLADRFPTGPLPAWLTEADLDVYSGEFERSGLTGALNRYRNVDRDWEDLAAWHGAPITQPSLFIGGALDASTTWMADALDAYPATLPGLSAAHILEGCGHWIQQERPDEVNRLLTQWLDGLR
notes: B1EPH2, putative α/β-epoxide hydrolase of Streptomyces sp; CBMAI 2042; the text says 344 amino acids; the b1eph2 ORF was amplified from genomic DNA and cloned into pET-29b(+) (plasmid pGTEPH2); Hexamer by the crystal structure (three protomers in the asymmetric unit, twofold crystallographic symmetry) and by analytical gel filtration; they are surmised from pET-29b(+) and the nickel column; also …
stoichiometry N [1]: 6
